From patent US20230145342A1, “COMBINATORY TREATMENT” (AALTO UNIVERSITY FOUNDATION SR, priority 2020, published 2023)
In brackets after ≈: the same amount, converted by molar mass. Entries after “also recorded” stand apart in the source; their conditions may differ.

How the values were obtained:
[1] = tested on: MDR resistant clinical isolates; assay: Coadministered antibiotics with P[5]a in MDR resistant clinical isolates (Example 8); format: cell-based
Source text: (§1) The effect of P[5]a on the penetration and efficacy of coadministered antibiotics Amikacin (a), Cefepime (b), Ceftazidime (c) and Meropenem (d) in MDR resistant clinical isolates were studied.

P. aeruginosa PAO1 [2] = assay: Antibiotic resistance buildup, daily MIC over 14 consecutive days; format: cell-based, Pseudomonas aeruginosa
Source text: Area below the yellow line means that the bacterium is classified as susceptible to the antibiotic. The area in between yellow and red means that the bacterium is intermediate susceptible to the antibiotic. The area above the red line means that the bacterium is classified as resistant to the antibiotic (According to the “Performance Standards for Antimicrobial Susceptibility Testing”, which is maintained by the Clinical and Laboratory Standards Institute).
Because of this, a combined administration of P[5]a with a variety of antibiotics was tested. MIC values with two different antibiotics, meropenem and cefepime (FIG. 2) were tested, over a period of 14 consecutive days (which more than surpasses the length of normal treatments, 7-10 days), when administered together with and without 2.5 mM P[5]a.
In this experiment, the minimum inhibitory concentration MIC was analyzed daily for 14 consecutive days, and the highest MIC values (so the highest concentration of antibiotic where the bacteria still grew) was used for the next day. This way, the buildup of resistance over time can be monitored. In FIG. 2, the area below the yellow line means that the bacterium is classified as susceptible to the antibiotic, the area in between yellow and red means that the bacterium is intermediate susceptible to the antibiotic and the area above the red line means that the bacterium is classified as resistant to the antibiotic (According to the “Performance Standards for Antimicrobial Susceptibility Testing”, which is maintained by the Clinical and Laboratory Standards Institute).
(§2) The effect of P[5]a on encountering resistance development in a pathogenic Gram-negative bacterium, Pserudomonas aeruginosa, strain PA01 was studied over 14-day period. The development of resistance over 14 continuous days by the pathogen PAO1 towards treatment with four clinically relevant antibiotics (meropenem, cefepime, aztreonam and tobramycin) and P[5]a was compared. […] In all antibiotic treatments, reduced susceptibility was observed from day 4 onwards, with complete resistance to all treatments after 12 days.
The effect of P[5]a on the enhancement of the penetration of coadministered antibiotics having intracellular targets (aztreonam, cefepime, meropenem and tobramycin) was studied over 14-day period in a pathogenic Gram-negative bacterium, Pserudomonas aeruginosa, strain PA01. […] MIC values were categorized in three groups according to the Clinical and Laboratory Standards Institute: susceptible, intermediate susceptible and resistant.

[3] = tested on: multidrug resistant P. aeruginosa strain PA 5539; assay: MIC of antibiotics without and with P[5]a, Luria broth (sensitizing effect test); format: cell-based, Pseudomonas aeruginosa; conditions: with vs without P[5]a
Protocol: (§3) Values in blue, yellow and orange indicate the bacterium is categorized as “susceptible”, “intermediate susceptible” and “resistant”, respectively, according to the “Performance Standards for Antimicrobial Susceptibility Testing”, which is maintained by the Clinical and Laboratory Standards Institute.
(§4) So, it was tested whether P[5]a could sensitize (increase the efficacy of) already resistant P. aeruginosa strains PA 5834 (FIG. 4) and PA 5539 (FIG. 5), that are resistant to a wide variety of antibiotics. To test this, two MDR P. aeruginosa strains from clinical isolates were used. These isolates were obtained from patients in the Meilahti hospital (Helsinki, Finland). The antibiotics used, and their different mechanisms of actions, are described in Table 2.
(§5) In FIG. 4 with P. aeruginosa strain PA 5834, P[5]a made the bacterium classify as “susceptible” again, whereas without P[5]a it was fully “resistant” to the antibiotics ceftazidime and cefepime (even growing in the highest concentration we tested). This could have major implications, because there have been many encounters already of “Pan-Drug resistant bacteria” bacteria that are classified as “resistant” to all known antibiotics. They are basically untreatable by current standards. P[5]a Virulence inhibitors, might make those bacteria susceptible again for treatment. In FIG. 5 with P. aeruginosa strain PA 5539, the overall resistance profile of the bacterium was much lower. […] Further testing was done on six resistant P. aeruginosa strains from the Helsinki hospital collection, PA 5550, PA 5842, PA 5827, PA 5832, PA 5834 and PA 5539 with four different antibiotics (amikacin, cefepime, ceftazidime and meropenem).

P. aeruginosa PAO1 [4] = assay: Pyocyanin toxin production followed over 14 days; format: cell-based, Pseudomonas aeruginosa; conditions: for pyocyanin toxin formation: throughout 14 days
Source text: as §2

[5] = Analytical ultracentrifuge sedimentation velocity analysis of P[5]a with LPS; format: binding, Pseudomonas aeruginosa; conditions: 135 μM P[5]a and 35 μM LPS, UV absorbance at 305 nm
Protocol: A clear initial peak of unbound P[5]a can be observer at low molecular weight (2260 Da), followed by a long and polydisperse collection of peaks, ranging from low molecular weight (S), to very high molecular weight (60.000 kDa) See Example 6.
The interaction of P[5]a with lipopolysaccharides of P. aeruginosa, strain PA10 was measured using AUC.
Analytical ultracentrifugation (AUC) is based on sedimentation of colloidal particles in a centrifugal field. During centrifugation particles move toward the bottom of the measuring cell. This movement leads to redistribution of particles along the measuring cell, which in turn can be expressed as a change in concentration along the measuring cell. The absorbance detector was used to follow the changes caused by centrifugation (absorbance is proportional to concentration). In simple words, in AUC the inventors measure how concentration changes during centrifugation, so they collect concentration profiles. Interaction between particles can be measured as a result of changes in the sedimentation profiles. […]
The spectra of both P[5]a and LPS from P. aeruginosa were first analysed separately (see FIG. 12 a and b). […] Because only the sedimentation of P[5]a was detected at 305 nm, the inventors were certain that any changes observed in the sedimentation profile, come from interactions between P[5]a and other particles. […]

[6] = tested on: resistant P. aeruginosa strains PA 5550, PA 5842, PA 5827, PA 5832, PA 5834 and PA 5539; assay: MIC of four antibiotics in presence or absence of P[5]a, Mueller broth; format: cell-based, Pseudomonas aeruginosa; conditions: six resistant strains, presence vs absence of P[5]a
Source text: as §5

Pseudomonas aeruginosa = assay: RNA sequencing / Gene Set Enrichment Analysis with and without P[5]a; format: cell-based; conditions: bacterial RNA with vs without P[5]a
Source text: Changes in gene expression levels are grouped in specific “gene sets”, which group all genes related to a specific function, for instance biofilm formation.
Pseudomonas aeruginosa is known to be one of the most problematic pathogenic micro-organisms. Indeed, in a laboratory environment, P. aeruginosa is resistant to nearly all antibiotics within a period of 3 to 4 days. Comparing the sequencing results of the bacterial RNA, with and without a pillarene[5]a (P[5]a, CAS No. 1351445-28-7), allowed the inventors to identify the processes that are affected by comparison with pre-determined gene set terms from the “KEGG pathway analysis” and the “GO Ontology” (see FIG. 1). These gene sets contain all the genes associated with a certain term, for instance “Biofilm”, and the inventors referenced all the genes affected by P[5]a, to these gene sets.

[7] = tested on: Pserudomonas aeruginosa, strain PA01; assay: Biofilm formation; format: cell-based, Pseudomonas aeruginosa; conditions: P[5]a in high concentrations
Protocol: The effect of P[5]a on the formation of biofilm by a pathogenic Gram-negative bacterium, Pserudomonas aeruginosa, strain PA01 was measured.
Biofilm is, alongside pyocyanin production, an important indicator of virulence in P. aeruginosa.

[8] = tested on: Pseudomonas aeruginosa 5539; assay: Resistance profile of strain (Table 3); format: cell-based; conditions: strain 5539
[9] = tested on: multidrug resistant P. aeruginosa strain PA 5834; assay: MIC of antibiotics without and with P[5]a, Luria broth (sensitizing effect test); format: cell-based, Pseudomonas aeruginosa
Protocol: as §3, §4, §5

[10] = tested on: Pseudomonas aeruginosa 5834; assay: Resistance profile of strain (Table 3); format: cell-based; conditions: strain 5834
Source text: as §1

[11] = tested on: Pseudomonas aeruginosa 5550; assay: Resistance profile of strain (Table 3); format: cell-based; conditions: strain 5550
Source text: as §1

[12] = tested on: Pseudomonas aeruginosa 5832; assay: Resistance profile of strain (Table 3); format: cell-based; conditions: strain 5832
Source text: as §1

[13] = tested on: Pseudomonas aeruginosa 5542; assay: Resistance profile of strain (Table 3); format: cell-based; conditions: strain 5542 P. aeruginosa
Source text: as §1

[14] = tested on: Pseudomonas aeruginosa 2798 (ATCC 2798); assay: Resistance profile of strain (Table 3); format: cell-based; conditions: strain 2798 (ATCC 2798)
Source text: as §1

[15] = tested on: Pseudomonas aeruginosa 5827; assay: Resistance profile of strain (Table 3); format: cell-based; conditions: strain 5827

Structure (SMILES)	Antibiotic resistance (category) [8]	Antibiotic resistance (value given with the category, MIC) [8]	susceptibility classification (CLSI) ([9]; with P[5]a)	susceptibility classification (CLSI) ([9]; without P[5]a)	Antibiotic resistance (category) [10]	Antibiotic resistance (value given with the category, MIC) [10]	Antibiotic resistance (category) [11]	Antibiotic resistance (value given with the category, MIC) [11]	Antibiotic resistance (category) [12]	Antibiotic resistance (value given with the category, MIC) [12]	Antibiotic resistance (category) [13]	Antibiotic resistance (value given with the category, MIC) [13]	Antibiotic resistance (category) [14]	Antibiotic resistance (category) [15]	Antibiotic resistance (value given with the category, MIC) [15]	other results
C[N+](C)(C)CCOc1cc2c(OCC[N+](C)(C)C)cc1Cc1cc(OCC[N+](C)(C)C)c(cc1OCC[N+](C)(C)C)Cc1cc(OCC[N+](C)(C)C)c(cc1OCC[N+](C)(C)C)Cc1cc(OCC[N+](C)(C)C)c(cc1OCC[N+](C)(C)C)Cc1cc(OCC[N+](C)(C)C)c(cc1OCC[N+](C)(C)C)C2.[Br-].[Br-].[Br-].[Br-].[Br-].[Br-].[Br-].[Br-].[Br-].[Br-] [P[5]a, 4,9,14,19,24,26,28,30,32,34-Deca[2-(trimethylammonio)ethoxy]hexacyclo[21.2.2.2^3,6.2^8,11.2^13,16.2^18,21]pentatriaconta1(25),3,5,8,10,13,15,18,20,23,26,28,30,32,34-pentadecaene ⋅ 10bromide]																penetration and efficacy of coadministered antibiotics Amikacin, Cefepime, Ceftazidime and Meropenem [1]: enhances; direct antimicrobial properties (P. aeruginosa PAO1 [2]): lacks direct antimicrobial properties; buildup of resistance to meropenem and cefepime when P[5]a is added (P. aeruginosa PAO1 [2]; 2.5 mM P[5]a, 14 consecutive days): significantly reduced; sensitizing effect on antibiotics [3]: sensitizing effect could be seen with nearly all antibiotics; resistance development towards P[5]a (decrease of effectivity of toxin inhibition) (P. aeruginosa PAO1 [4]; 14-day period): does not encounter resistance development; also recorded: no observable decrease of effectivity; pyocyanin toxin formation (P. aeruginosa PAO1 [4]): successfully suppressed; bacterial viability (P. aeruginosa PAO1 [4]; throughout 14 days of P[5]a treatment): no decrease; pyocyanin toxin formation (P. aeruginosa PAO1 [4]; listed as P5a): very efficient in suppressing; interaction with LPS [5]: strong interaction; also recorded: capable of interacting with multiple LPS particles; sensitizing effects on amikacin, cefepime, ceftazidime and meropenem [6]: In all cases the sensitizing effects were observed; bacterial antibiotic resistance genes (MexCD-OprJ, MexAB-OprM, mexXY) (Pseudomonas aeruginosa): significantly down-regulates; gene sets associated with virulence factors (Biofilm, Quorum Sensing, Bioverdine biosynthetic process, Biosynthesis of Secondary Metabolites) (Pseudomonas aeruginosa; KEGG and GO gene sets): downregulated; biofilm formation [7]: significantly reduced
CO/N=C(\C(=O)N[C@@H]1C(=O)N2C(C(=O)[O-])=C(C[N+]3(C)CCCC3)CS[C@H]12)c1csc(N)n1 [cefepime, Cefepime]	intermediate	8 µg	susceptible	resistant	resistant	cefepime 64 ug, ceftazidime 64 ug and meropenem 64 ug	Intermediate susceptible	16 µg	Intermediate susceptible	8 µg	resistant	32 µg	Intermediate susceptible	resistant	32 µg	MIC (P. aeruginosa PAO1 [2]; Pseudomonas aeruginosa, PAO1, 96 h, after four days, highest concentration of antibiotic included): 128 µg/mL (≈ 266 µM); development of resistance by the pathogen to the respective antibiotic (P. aeruginosa PAO1 [2]; coadministration of P[5]a with the antibiotic, 14-day period): greatly slowed
CC(C)(O/N=C(\C(=O)N[C@@H]1C(=O)N2C(C(=O)[O-])=C(C[n+]3ccccc3)CS[C@H]12)c1csc(N)n1)C(=O)O [ceftazidime, Ceftazidime]	resistant	8 µg	susceptible	resistant	resistant	cefepime 64 ug, ceftazidime 64 ug and meropenem 64 ug	resistant	16 µg	resistant	16 µg	resistant	32 µg	Aztreonam & Cefepime, Resistant to Ceftazidime, Cirpofloxacin,	resistant	64 µg	
